Measurements taken from PMC10046369, “Low-Affinity/High-Selectivity Dopamine Transport Inhibition Sufficient to Rescue Cognitive Functions in the Aging Rat” (Biomolecules, 2023).

Columns and labels:
Assay in all cases: cell-based
Design in all cases: Eurofins Cerep functional GPCR screen, antagonist mode, inhibition of control agonist response
Conditions in all cases: read-out: % Inhibition of Control Agonist Response, Mean
[1] = biological target: T1, GABAB1b beta (Homo sapiens, UniProt Q9UBS5)
T1 construct: gene GABBR1; GABAB1b isoform
T1 sequence (Q9UBS5 whole entry, canonical isoform): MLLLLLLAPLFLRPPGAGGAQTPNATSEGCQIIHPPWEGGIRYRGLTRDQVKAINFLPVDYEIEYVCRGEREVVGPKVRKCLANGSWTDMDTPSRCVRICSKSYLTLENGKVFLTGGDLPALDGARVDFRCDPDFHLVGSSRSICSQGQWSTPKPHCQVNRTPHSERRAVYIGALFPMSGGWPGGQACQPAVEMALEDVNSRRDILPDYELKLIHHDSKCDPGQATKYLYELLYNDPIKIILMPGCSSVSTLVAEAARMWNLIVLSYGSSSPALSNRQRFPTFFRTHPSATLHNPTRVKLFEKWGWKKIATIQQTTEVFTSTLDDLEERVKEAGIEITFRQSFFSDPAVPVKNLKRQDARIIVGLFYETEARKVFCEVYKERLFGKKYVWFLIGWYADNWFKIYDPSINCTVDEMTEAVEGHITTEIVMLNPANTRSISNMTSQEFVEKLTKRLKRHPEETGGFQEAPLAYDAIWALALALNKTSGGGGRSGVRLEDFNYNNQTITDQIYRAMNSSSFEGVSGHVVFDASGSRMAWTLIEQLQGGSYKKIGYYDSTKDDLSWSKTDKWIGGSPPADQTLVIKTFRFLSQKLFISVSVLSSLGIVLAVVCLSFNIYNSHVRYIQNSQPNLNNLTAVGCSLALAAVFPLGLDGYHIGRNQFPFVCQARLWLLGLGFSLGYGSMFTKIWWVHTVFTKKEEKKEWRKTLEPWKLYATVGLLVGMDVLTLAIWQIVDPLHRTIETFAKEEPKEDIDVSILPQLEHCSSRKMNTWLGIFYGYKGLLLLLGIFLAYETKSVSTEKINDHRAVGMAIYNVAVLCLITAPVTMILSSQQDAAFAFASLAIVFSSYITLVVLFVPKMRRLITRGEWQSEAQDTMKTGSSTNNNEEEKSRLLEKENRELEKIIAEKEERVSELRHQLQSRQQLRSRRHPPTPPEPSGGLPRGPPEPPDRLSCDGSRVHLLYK
T1 sequence (O75899 whole entry partner, canonical isoform): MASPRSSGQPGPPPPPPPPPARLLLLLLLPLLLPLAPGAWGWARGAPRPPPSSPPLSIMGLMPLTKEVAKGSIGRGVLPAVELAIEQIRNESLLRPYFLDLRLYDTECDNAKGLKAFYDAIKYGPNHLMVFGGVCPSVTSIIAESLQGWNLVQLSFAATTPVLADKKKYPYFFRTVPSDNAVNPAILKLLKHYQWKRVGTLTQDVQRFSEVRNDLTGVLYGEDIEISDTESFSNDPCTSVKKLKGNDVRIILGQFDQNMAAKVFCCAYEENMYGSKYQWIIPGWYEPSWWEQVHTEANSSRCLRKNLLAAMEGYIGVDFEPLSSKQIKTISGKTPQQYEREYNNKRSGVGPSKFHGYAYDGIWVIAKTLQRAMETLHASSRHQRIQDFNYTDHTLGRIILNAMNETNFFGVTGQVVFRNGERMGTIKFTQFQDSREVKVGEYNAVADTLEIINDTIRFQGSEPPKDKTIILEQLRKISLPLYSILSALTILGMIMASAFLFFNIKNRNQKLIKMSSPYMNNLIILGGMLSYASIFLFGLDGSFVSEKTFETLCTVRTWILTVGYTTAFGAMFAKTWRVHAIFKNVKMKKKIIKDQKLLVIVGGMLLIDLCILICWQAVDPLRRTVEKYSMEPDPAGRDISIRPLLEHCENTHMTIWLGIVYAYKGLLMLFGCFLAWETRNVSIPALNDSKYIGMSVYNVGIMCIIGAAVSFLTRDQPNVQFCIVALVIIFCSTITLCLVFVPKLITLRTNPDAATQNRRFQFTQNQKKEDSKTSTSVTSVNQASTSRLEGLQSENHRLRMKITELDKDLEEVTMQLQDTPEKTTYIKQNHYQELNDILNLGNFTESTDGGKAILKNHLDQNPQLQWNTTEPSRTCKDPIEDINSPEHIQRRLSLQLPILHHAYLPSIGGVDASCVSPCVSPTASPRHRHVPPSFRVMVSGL

[2] = biological target: CCR10 (Homo sapiens, UniProt P46092)
Chain of CCR10 (P46092 whole entry): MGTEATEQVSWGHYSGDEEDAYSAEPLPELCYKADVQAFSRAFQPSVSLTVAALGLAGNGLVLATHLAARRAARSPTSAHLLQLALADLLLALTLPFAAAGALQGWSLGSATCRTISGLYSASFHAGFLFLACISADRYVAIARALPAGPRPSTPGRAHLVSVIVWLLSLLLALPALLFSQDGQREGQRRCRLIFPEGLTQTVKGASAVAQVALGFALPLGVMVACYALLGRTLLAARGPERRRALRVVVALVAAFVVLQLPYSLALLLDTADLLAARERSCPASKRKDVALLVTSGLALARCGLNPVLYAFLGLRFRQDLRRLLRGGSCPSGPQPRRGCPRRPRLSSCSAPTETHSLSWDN

[3] = biological target: CX3CR1 (Homo sapiens, UniProt P49238)
Chain of CX3CR1 (P49238 whole entry): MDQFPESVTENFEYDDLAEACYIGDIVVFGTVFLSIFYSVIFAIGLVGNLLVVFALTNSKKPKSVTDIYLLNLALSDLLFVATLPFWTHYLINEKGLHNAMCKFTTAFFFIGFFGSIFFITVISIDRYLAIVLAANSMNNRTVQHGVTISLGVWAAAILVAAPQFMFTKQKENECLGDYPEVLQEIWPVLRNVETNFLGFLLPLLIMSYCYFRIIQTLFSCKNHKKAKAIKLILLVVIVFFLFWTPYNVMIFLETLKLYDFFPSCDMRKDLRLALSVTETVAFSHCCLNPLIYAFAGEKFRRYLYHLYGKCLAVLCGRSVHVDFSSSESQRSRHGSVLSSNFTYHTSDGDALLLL

[4] = biological target: T2, α1A (Homo sapiens, UniProt P35348)
T2 construct: gene ADRA1A

[5] = biological target: T3, CysLT2 (LTC4) (Homo sapiens, UniProt Q9NS75)
T3 construct: gene CYSLTR2

[6] = biological target: T4, α2A (Homo sapiens, UniProt P08913)
T4 construct: gene ADRA2A

[7] = biological target: T5, CGRP (Homo sapiens, UniProt Q16602)
T5 construct: gene CALCRL
T5 sequence (Q16602 whole entry): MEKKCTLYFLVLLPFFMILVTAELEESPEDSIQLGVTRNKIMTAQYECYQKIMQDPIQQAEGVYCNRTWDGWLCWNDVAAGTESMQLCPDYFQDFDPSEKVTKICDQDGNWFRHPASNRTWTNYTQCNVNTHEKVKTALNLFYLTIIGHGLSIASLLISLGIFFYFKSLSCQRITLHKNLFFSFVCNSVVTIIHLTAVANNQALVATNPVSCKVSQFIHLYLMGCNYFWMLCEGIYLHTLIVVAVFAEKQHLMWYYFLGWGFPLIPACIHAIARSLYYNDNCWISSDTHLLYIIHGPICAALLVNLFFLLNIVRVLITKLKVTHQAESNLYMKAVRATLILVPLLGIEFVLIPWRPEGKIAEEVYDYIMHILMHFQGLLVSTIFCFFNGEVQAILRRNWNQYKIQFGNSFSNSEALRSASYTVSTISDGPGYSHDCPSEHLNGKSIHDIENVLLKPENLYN
T5 sequence (O60894 whole entry partner): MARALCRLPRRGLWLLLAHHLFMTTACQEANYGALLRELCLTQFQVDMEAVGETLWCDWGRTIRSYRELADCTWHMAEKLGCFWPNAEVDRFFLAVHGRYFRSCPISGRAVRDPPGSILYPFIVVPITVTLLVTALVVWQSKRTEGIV

[8] = biological target: T6, GAL2 (Homo sapiens, UniProt O43603)
T6 construct: gene GALR2

[9] = biological target: GPR39 (Homo sapiens, UniProt O43194)
[10] = biological target: T7, TSH (Homo sapiens, UniProt P16473)
T7 construct: gene TSHR
T7 sequence (P16473 whole entry): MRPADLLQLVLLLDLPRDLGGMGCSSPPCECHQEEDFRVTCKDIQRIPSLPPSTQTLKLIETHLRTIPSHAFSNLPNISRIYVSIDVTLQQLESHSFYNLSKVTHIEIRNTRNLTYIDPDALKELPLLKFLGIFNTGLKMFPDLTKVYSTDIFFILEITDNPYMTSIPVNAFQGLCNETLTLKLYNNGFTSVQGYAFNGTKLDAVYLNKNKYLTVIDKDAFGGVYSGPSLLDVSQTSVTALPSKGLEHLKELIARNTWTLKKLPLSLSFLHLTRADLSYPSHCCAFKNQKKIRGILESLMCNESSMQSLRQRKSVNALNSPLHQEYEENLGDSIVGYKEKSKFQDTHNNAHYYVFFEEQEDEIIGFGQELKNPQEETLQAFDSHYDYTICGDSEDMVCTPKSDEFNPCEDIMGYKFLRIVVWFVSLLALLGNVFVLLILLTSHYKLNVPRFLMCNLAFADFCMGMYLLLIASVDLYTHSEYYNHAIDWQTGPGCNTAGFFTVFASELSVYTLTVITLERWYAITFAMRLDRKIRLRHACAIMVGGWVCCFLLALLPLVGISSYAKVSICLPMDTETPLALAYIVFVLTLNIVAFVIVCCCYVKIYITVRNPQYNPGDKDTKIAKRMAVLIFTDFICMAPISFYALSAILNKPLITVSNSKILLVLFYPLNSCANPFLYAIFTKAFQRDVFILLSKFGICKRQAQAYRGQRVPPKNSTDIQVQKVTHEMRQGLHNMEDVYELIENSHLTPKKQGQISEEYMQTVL

[11] = biological target: T8, B1 (Homo sapiens, UniProt P46663)
T8 construct: gene BDKRB1

[12] = biological target: CXCR1 (Homo sapiens, UniProt P25024)
[13] = biological target: T9, H2 (Homo sapiens, UniProt P25021)
T9 construct: gene HRH2

[14] = biological target: T10, D3 (Homo sapiens, UniProt P35462)
T10 construct: gene DRD3
T10 sequence (P35462 whole entry): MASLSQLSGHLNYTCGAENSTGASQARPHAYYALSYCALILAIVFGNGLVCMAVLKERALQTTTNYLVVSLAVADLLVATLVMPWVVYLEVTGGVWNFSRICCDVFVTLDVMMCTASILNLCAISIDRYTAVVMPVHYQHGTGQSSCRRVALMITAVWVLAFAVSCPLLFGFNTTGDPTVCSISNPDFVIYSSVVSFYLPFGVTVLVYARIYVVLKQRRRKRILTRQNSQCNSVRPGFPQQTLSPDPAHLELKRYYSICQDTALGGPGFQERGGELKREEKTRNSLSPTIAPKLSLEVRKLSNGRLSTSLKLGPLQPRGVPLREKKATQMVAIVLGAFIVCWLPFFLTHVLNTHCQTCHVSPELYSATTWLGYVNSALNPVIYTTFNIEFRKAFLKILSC

[15] = biological target: CCR4 (Homo sapiens, UniProt P51679)
[16] = biological target: T11, CCK1 (CCKA) (Homo sapiens, UniProt P32238)
T11 construct: gene CCKAR

[17] = biological target: OXGR1 GPR99 (Homo sapiens, UniProt Q96P68)
[18] = biological target: T12, CB1 (Homo sapiens, UniProt P21554)
T12 construct: gene CNR1

[19] = biological target: T13, FFA4 (GPR120) (Homo sapiens, UniProt Q5NUL3)
T13 construct: gene FFAR4

[20] = biological target: T14, FFA3 (Homo sapiens, UniProt O14843)
T14 construct: gene FFAR3

[21] = biological target: T15, TGR5 (Homo sapiens, UniProt Q8TDU6)
T15 construct: gene GPBAR1

[22] = biological target: T16, KiSS1 / GPR54 (Homo sapiens, UniProt Q969F8)
T16 construct: gene KISS1R

[23] = biological target: CCR7 (Homo sapiens, UniProt P32248)
Chain of CCR7 (P32248 whole entry): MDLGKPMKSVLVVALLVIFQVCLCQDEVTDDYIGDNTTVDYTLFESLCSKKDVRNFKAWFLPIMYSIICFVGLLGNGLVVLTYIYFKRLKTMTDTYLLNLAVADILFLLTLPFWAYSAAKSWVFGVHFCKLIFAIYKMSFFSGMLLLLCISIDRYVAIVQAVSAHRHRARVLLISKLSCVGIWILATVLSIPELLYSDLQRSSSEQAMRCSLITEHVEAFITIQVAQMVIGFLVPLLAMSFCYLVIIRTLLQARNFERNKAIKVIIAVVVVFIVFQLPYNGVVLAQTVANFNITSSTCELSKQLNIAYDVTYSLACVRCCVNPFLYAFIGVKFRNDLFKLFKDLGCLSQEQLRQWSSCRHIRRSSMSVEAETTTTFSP

[24] = biological target: XCR1 / GPR5 (Homo sapiens, UniProt P46094)
[25] = biological target: T17, GPR103/QRFP (Homo sapiens, UniProt Q96P65)
T17 construct: gene QRFPR

## [O-][S@@+](Cc1cncs1)C(c1ccccc1)c1ccccc1 [S-CE-123, (S)-5-((Benzhydrylsulfinyl)Methyl)Thiazole]
[1]
  inhibition at 2.8 µM: -10.6%
[2]
  inhibition at 2.8 µM: -6.9%
[3]
  inhibition at 2.8 µM: -15.8%
[4]
  inhibition at 2.8 µM: 3.1%
[5]
  inhibition at 2.8 µM: 4.5%
[6]
  inhibition at 2.8 µM: -8.4%
[7]
  inhibition at 2.8 µM: -18.8%
[8]
  inhibition at 2.8 µM: -4.8%
[9]
  inhibition at 2.8 µM: 1.6%
[10]
  inhibition at 2.8 µM: -6.1%
[11]
  inhibition at 2.8 µM: -10.4%
[12]
  inhibition at 2.8 µM: -13%
[13]
  inhibition at 2.8 µM: -2.4%
[14]
  inhibition at 2.8 µM: -1.9%
[15]
  inhibition at 2.8 µM: -5.8%
[16]
  inhibition at 2.8 µM: 18.2%
[17]
  inhibition at 2.8 µM: -10.2%
[18]
  inhibition at 2.8 µM: -2.1%
[19]
  inhibition at 2.8 µM: -14.4%
[20]
  inhibition at 2.8 µM: -1.4%
[21]
  inhibition at 2.8 µM: -0.3%
[22]
  inhibition at 2.8 µM: -2.8%
[23]
  inhibition at 2.8 µM: 2.8%
[24]
  inhibition at 2.8 µM: -9.2%
[25]
  inhibition at 2.8 µM: -8.8%
